Test results as given in patent US9936622B2, “Apparatus for applying a pesticide to perennial crops” (Sumitomo Chemical Company, Limited, priority 2007, dated 2018).

Experiments:
[1] = system: psyllids Creiis lituratus; assay: Field trial, subsurface application for the control of psyllids (lerp counts) on Eucalyptus dunni; type: in vivo; conditions: for Mean lerp count per 5 terminal leaflets: subsurface application
Source text: (§1) Near Casino, northern New South Wales, Australia in the 2006-2007 season, chlothianidin as a suspension (200 g/L) in water at 0.5, 1.0 and 1.5 grams of active ingredient per tree (gai/tree) was applied to 2 year old Eucalyptus dunni trees for the control of psyllids Creiis lituratus during winter and chrysomelid leaf beetles during summer.
(§2) A single application below the soil surface was made by coulter 20-40 cm from the base of the stem of the trees and to a depth of 10-15 cm in 128 L of water per hectare. Psyllid lerp counts were taken 141 and 303 DAT (days after treatment). Tree height was measured at treatment and then at 303 DAT. Diameter at breast height was measured at 303 DAT.

[2] = system: 2 year old Eucalyptus dunni trees; assay: Field trial, effect of psyllid control on growth of E. dunni (tree height, diameter, wood volume); type: in vivo; conditions: for Mean increase in tree height: 0-303 DAT
Source text: as §1, §2
The difference in volume between the untreated and the 1 gai/tree treatment can be calculated over 303 days

SMILES: CN/C(=N\[N+](=O)[O-])NCc1cnc(Cl)s1 [Clothianidin, clothianidin]
- Mean lerp count per 5 terminal leaflets ([1]; 0.5 gai/tree, Mar. 19, 2007 (303 DAT)): 3.50 B
- Mean lerp count per 5 terminal leaflets ([1]; 0.5 gai/tree, Oct. 7, 2006 (141 DAT)): 2.33 b
- Mean lerp count per 5 terminal leaflets ([1]; 1 gai/tree, Mar. 19, 2007 (303 DAT)): 2.06 B
- Mean lerp count per 5 terminal leaflets ([1]; 1 gai/tree, Oct. 7, 2006 (141 DAT)): 0.71 c
- Mean lerp count per 5 terminal leaflets ([1]; 1.5 gai/tree, Mar. 19, 2007 (303 DAT)): 0.69 B
- Mean lerp count per 5 terminal leaflets ([1]; 1.5 gai/tree, Oct. 7, 2006 (141 DAT)): 0.58 c
- psyllid lerp counts ([1]; sub-surface application at 0.5 to 1.5 gai/tree, up to 303 DAT): significantly reduced
- Mean increase in tree height ([2]; 0.5 gai/tree): 198 ab cm
- DBM (diameter at breast height, 1.3 m above ground level) ([2]; 0.5 gai/tree, 303 DAT): 5.44 cm
- Mean tree height ([2]; 0.5 gai/tree, 303 DAT): 500 bc cm
- Mean increase in tree height ([2]; 1 gai/tree): 228 a cm
- DBM (diameter at breast height, 1.3 m above ground level) ([2]; 1 gai/tree, 303 DAT): 5.91 cm
- Mean tree height ([2]; 1 gai/tree, 303 DAT): 526 b cm
- Increase in wood volume ([2]; 1 gai/tree, 303 DAT, versus untreated): 8.5 m^3/ha
- Mean tree diameter ([2]; 1 gai/tree, over 303 days): 5.91 cm
- Mean tree height ([2]; 1 gai/tree, over 303 days): 5.26 m
- Mean wood vol/ha ([2]; 1 gai/tree, over 303 days): 22.2 m^3
- Mean increase in tree height ([2]; 1.5 gai/tree): 229 a cm
- DBM (diameter at breast height, 1.3 m above ground level) ([2]; 1.5 gai/tree, 303 DAT): 6.67 cm
- Mean tree height ([2]; 1.5 gai/tree, 303 DAT): 594 a cm
- growth of E. dunni ([2]; sub-surface application at 0.5 to 1.5 gai/tree, high psyllid pressure, up to 303 DAT): improved
